pKi: −log10 of the molar value.
Experiments:
human 5-HT2A receptor = human 5-HT2A receptor (Homo sapiens (Human), UniProt P28223); test: Radioligand binding ([3H]-ketanserin) to human 5-HT2A receptor, HEK293 EBNA membranes; settings: HEK293 EBNA cells expressing human 5-HT2A receptor
Outline: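 Membranes from HEK293 EBNA cells transiently expressing the human receptor were incubated 1 h at RT with ~0.7 nM (D2) or 0.5 nM (D3) [3H]-spiperone, or 1.1 nM [3H]-ketanserin (5-HT2A), plus ten compound concentrations (10 μM–0.1 nM). Nonspecific binding was set with 10 μM spiperone; Ki was derived from IC50 via Cheng-Prusoff.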

human D3 receptor = human D3 receptor (Homo sapiens (Human), UniProt P35462); test: Radioligand binding ([3H]-spiperone) to human D3 receptor, HEK293 EBNA membranes; settings: HEK293 EBNA cells expressing human D3 receptor
Outline: (§1)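 Membranes from transiently transfected HEK293 EBNA cells (~7.5 μg protein/well) were incubated 1 h at RT with [3H]-spiperone (~0.7 nM for D2, 0.5 nM for D3) and ten compound concentrations (10 μM–0.1 nM) in Tris/NaCl/MgCl2/CaCl2 buffer pH 7.4. Filtration and scintillation counting, nonspecific with 10 μM spiperone; Ki via Cheng-Prusoff.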

human D2 receptor = human D2 receptor (Homo sapiens (Human), UniProt P14416); test: Radioligand binding ([3H]-spiperone) to human D2 receptor, HEK293 EBNA membranes; settings: HEK293 EBNA cells expressing human D2 receptor
Outline: as §1

Chain of human 5-HT2A receptor (P28223 whole entry): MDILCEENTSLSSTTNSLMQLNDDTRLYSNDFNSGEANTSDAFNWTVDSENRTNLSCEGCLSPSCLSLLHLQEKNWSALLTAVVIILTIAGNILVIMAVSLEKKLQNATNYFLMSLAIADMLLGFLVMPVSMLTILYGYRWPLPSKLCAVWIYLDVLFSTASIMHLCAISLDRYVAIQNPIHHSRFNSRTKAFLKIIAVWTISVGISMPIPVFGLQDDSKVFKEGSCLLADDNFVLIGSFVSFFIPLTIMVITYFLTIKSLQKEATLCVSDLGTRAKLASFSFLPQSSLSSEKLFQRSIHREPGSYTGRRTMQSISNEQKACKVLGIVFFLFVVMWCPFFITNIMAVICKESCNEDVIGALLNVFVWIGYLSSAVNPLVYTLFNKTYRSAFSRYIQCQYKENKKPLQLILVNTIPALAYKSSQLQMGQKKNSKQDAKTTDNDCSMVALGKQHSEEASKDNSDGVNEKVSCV
Chain of human D3 receptor (P35462 whole entry): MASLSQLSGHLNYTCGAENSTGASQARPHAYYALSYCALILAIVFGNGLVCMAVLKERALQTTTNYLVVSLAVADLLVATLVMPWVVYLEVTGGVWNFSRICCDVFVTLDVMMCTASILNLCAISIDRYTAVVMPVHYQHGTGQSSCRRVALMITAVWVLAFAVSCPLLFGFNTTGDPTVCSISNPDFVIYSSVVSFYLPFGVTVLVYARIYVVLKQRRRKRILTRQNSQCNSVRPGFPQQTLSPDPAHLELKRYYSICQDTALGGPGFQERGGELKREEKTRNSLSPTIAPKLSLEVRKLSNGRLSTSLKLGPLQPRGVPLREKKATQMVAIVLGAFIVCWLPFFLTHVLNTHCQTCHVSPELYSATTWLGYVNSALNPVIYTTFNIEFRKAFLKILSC
Chain of human D2 receptor (P14416 whole entry): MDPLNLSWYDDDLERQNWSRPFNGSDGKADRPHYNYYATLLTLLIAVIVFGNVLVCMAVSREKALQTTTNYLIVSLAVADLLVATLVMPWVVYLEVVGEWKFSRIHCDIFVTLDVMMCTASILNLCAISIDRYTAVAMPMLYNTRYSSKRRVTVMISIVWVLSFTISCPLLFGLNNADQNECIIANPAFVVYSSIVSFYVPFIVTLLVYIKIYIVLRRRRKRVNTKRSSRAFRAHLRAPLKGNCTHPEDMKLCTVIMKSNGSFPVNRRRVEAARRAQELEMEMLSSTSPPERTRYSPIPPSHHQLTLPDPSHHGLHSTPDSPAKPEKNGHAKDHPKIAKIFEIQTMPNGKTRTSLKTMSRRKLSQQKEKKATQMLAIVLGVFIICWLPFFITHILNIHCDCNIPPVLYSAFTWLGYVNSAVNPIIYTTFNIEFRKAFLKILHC

Structure (SMILES) | pKi (human 5-HT2A receptor) | pKi (human D3 receptor) | melting point [°C] | pKi (human D2 receptor)
COC(CC(=O)N[C@H]1CC[C@H](CCN2CCC(c3coc4ccccc34)CC2)CC1)OC [Example 52, trans-N-{4-[2-(4-Benzofuran-3-yl-piperidin-1-yl)-ethyl]-cyclohexyl}-3,3-dimethoxy-propionamide] | 8.23 | 8.84 | 148 | 7.31
CC(C)=CC(=O)N[C@H]1CC[C@H](CCN2CCC(c3coc4ccccc34)CC2)CC1 [Example 53, 3-Methyl-but-2-enoic acid trans-{4-[2-(4-benzofuran-3-yl-piperidin-1-yl)-ethyl]-cyclohexyl}-amide] | 8.01 | 8.55 | 147 | 7.74
C/C=C/CC(=O)N[C@H]1CC[C@H](CCN2CCC(c3coc4ccccc34)CC2)CC1 [Example 54, (E)-Pent-3-enoic acid trans-{4-[2-(4-benzofuran-3-yl-piperidin-1-yl)-ethyl]-cyclohexyl}-amide] | 7.91 | 8.74 | 165 | 7.24
CC#CC(=O)N[C@H]1CC[C@H](CCN2CCC(c3coc4ccccc34)CC2)CC1 [Example 55, But-2-ynoic acid trans-{4-[2-(4-benzofuran-3-yl-piperidin-1-yl)-ethyl]-cyclohexyl}-amide] | 8.10 | 8.68 | 161 | 7.59
O=CN[C@H]1CC[C@H](CCN2CCC(c3coc4ccccc34)CC2)CC1 [Example 56, trans-N-{4-[2-(4-Benzofuran-3-yl-piperidin-1-yl)-ethyl]-cyclohexyl}-formamide] | 7.87 | 8.57 | 155 | 7.41
CCCCC(=O)N[C@H]1CC[C@H](CCN2CCC(c3coc4ccccc34)CC2)CC1 [Example 57, Pentanoic acid trans-{4-[2-(4-benzofuran-3-yl-piperidin-1-yl)-ethyl]-cyclohexyl}-amide] | 7.88 | 8.66 | 167 | 7.18
O=C(N[C@H]1CC[C@H](CCN2CCC(c3coc4ccccc34)CC2)CC1)c1ccc2c(c1)OCO2 [Example 58, Benzo[1,3]dioxole-5-carboxylic acid trans-{4-[2-(4-benzofuran-3-yl-piperidin-1-yl)-ethyl]-cyclohexyl}-amide] | 8.06 | 8.55 | 198 | 7.54
O=C(N[C@H]1CC[C@H](CCN2CCC(c3coc4ccccc34)CC2)CC1)c1ccc(-n2cccn2)cc1 [Example 59, trans-N-[4-{2-(4-Benzofuran-3-yl-piperidin-1-yl)-ethyl]-cyclohexyl}-4-pyrazol-1-yl-benzamide] | 7.65 | 8.24 | 205 | 7.33
CC(C)(C)c1ccc(C(=O)N[C@H]2CC[C@H](CCN3CCC(c4coc5ccccc45)CC3)CC2)cc1 [Example 60, trans-N-{4-[2-(4-Benzofuran-3-yl-piperidin-1-yl)-ethyl]-cyclohexyl}-4-tert-butyl-benzamide] | 8.42 | 8.00 | 180 | 5.95
Cc1nc(-c2ccc(C(=O)N[C@H]3CC[C@H](CCN4CCC(c5coc6ccccc56)CC4)CC3)cc2)no1 [Example 61, trans-N-{4-[2-(4-Benzofuran-3-yl-piperidin-1-yl)-ethyl]-cyclohexyl}-4-(5-methyl-[1,2,4]oxadiazol-3-yl)-benzamide] | 7.82 | 8.54 | 194 | 6.64
CN1CCN(c2ccc(C(=O)N[C@H]3CC[C@H](CCN4CCC(c5coc6ccccc56)CC4)CC3)cc2)CC1 [Example 62, trans-N-{4-[2-(4-Benzofuran-3-yl-piperidin-1-yl)-ethyl]-cyclohexyl}-4-(4-methyl-piperazin-1-yl)-benzamide] | 8.05 | 8.22 | 242 | 7.30
O=C(N[C@H]1CC[C@H](CCN2CCC(c3coc4ccccc34)CC2)CC1)c1ccc(-c2ccccc2)cc1 [Example 63, Biphenyl-4-carboxylic acid trans-{4-[2-(4-benzofuran-3-yl-piperidin-1-yl)-ethyl]-cyclohexyl}-amide] | 8.28 | 8.47 | 235 | 7.66
O=C(N[C@H]1CC[C@H](CCN2CCC(c3coc4ccccc34)CC2)CC1)c1ccc(-c2cccnc2)cc1 [Example 64, trans-N-{4-[2-(4-Benzofuran-3-yl-piperidin-1-yl)-ethyl]-cyclohexyl}-4-pyridin-3-yl-benzamide] | 7.89 | 8.34 | 224 | 7.78
O=C(N[C@H]1CC[C@H](CCN2CCC(c3coc4ccccc34)CC2)CC1)c1ccc(N2CCOCC2)nc1 [Example 65, trans-N-{4-[2-(4-Benzofuran-3-yl-piperidin-1-yl)-ethyl]-cyclohexyl}-6-morpholin-4-yl-nicotinamide] | 8.12 | 8.46 | 215 | 7.29
O=C(N[C@H]1CC[C@H](CCN2CCC(c3coc4ccccc34)CC2)CC1)c1ccc(N2CCS(=O)(=O)CC2)cc1 [Example 66, trans-N-{4-[2-(4-Benzofuran-3-yl-piperidin-1-yl)-ethyl]-cyclohexyl}-4-(1,1-dioxo-1λ6-thiomorpholin-4-yl)-benzamide] | 8.00 | 8.47 | 269 | 7.72
O=C(N[C@H]1CC[C@H](CCN2CCC(c3coc4ccccc34)CC2)CC1)c1cnc(N2CCOCC2)cn1 [Example 67, 5-Morpholin-4-yl-pyrazine-2-carboxylic acid trans-{4-[2-(4-benzofuran-3-yl-piperidin-1-yl)-ethyl]-cyclohexyl}-amide] | 8.09 | 8.11 | 202 | 6.98
O=C(N[C@H]1CC[C@H](CCN2CCC(c3coc4ccccc34)CC2)CC1)c1ccc(-n2cccc2)cc1 [Example 68, trans-N-{4-[2-(4-Benzofuran-3-yl-piperidin-1-yl)-ethyl]-cyclohexyl}-4-pyrrol-1-yl-benzamide] | 7.99 | 8.34 | 212 | 7.47
Cc1ccc(C(=O)N[C@H]2CC[C@H](CCN3CCC(c4coc5ccccc45)CC3)CC2)cn1 [Example 69, trans-N-{4-[2-(4-Benzofuran-3-yl-piperidin-1-yl)-ethyl]-cyclohexyl}-6-methyl-nicotinamide] | 8.29 | 8.60 | 203 | 7.55
N#Cc1ccc(C(=O)N[C@H]2CC[C@H](CCN3CCC(c4coc5ccccc45)CC3)CC2)cc1 [Example 70, trans-N-{4-[2-(4-Benzofuran-3-yl-piperidin-1-yl)-ethyl]-cyclohexyl}-4-cyano-benzamide] | 8.23 | 8.57 | 195 | 7.82
CC(C)(C)Oc1ccc(C(=O)N[C@H]2CC[C@H](CCN3CCC(c4coc5ccccc45)CC3)CC2)cc1 [Example 71, trans-N-{4-[2-(4-Benzofuran-3-yl-piperidin-1-yl)-ethyl]-cyclohexyl}-4-tert-butoxy-benzamide] | 8.25 | 8.67 | 186 | 6.77
CO[C@H]1CC[C@H](CC(=O)N[C@H]2CC[C@H](CCN3CCC(c4coc5ccccc45)CC3)CC2)CC1 [Example 72, trans-N-{4-[2-(4-Benzofuran-3-yl-piperidin-1-yl)-ethyl]-cyclohexyl}-2-trans-(4-methoxy-cyclohexyl)-acetamide] | 8.09 | 8.51 | 179 | 7.17
O=C(N[C@H]1CC[C@H](CCN2CCC(c3coc4ccccc34)CC2)CC1)c1ccc2ncccc2c1 [Example 73, Quinoline-6-carboxylic acid trans-{4-[2-(4-benzofuran-3-yl-piperidin-1-yl)-ethyl]-cyclohexyl}-amide] | 7.96 | 8.62 | 192 | 6.99
O=C(Cc1ccc2c(c1)OCO2)N[C@H]1CC[C@H](CCN2CCC(c3coc4ccccc34)CC2)CC1 [Example 74, trans-2-Benzo[1,3]dioxol-5-yl-N-{4-[2-(4-benzofuran-3-yl-piperidin-1-yl)-ethyl]-cyclohexyl}-acetamide] | 7.94 | 8.78 | 177 | 7.03
CS(=O)(=O)c1ccc(C(=O)N[C@H]2CC[C@H](CCN3CCC(c4coc5ccccc45)CC3)CC2)s1 [Example 75, 5-Methanesulfonyl-thiophene-2-carboxylic acid trans-{4-[2-(4-benzofuran-3-yl-piperidin-1-yl)-ethyl]-cyclohexyl}-amide] | 8.11 | 8.41 | 214 | 7.22
O=C(CC1COC1)N[C@H]1CC[C@H](CCN2CCC(c3coc4ccccc34)CC2)CC1 [Example 76, trans-N-{4-[2-(4-Benzofuran-3-yl-piperidin-1-yl)-ethyl]-cyclohexyl}-2-oxetan-3-yl-acetamide] | 8.28 | 8.79 | 197 | 7.47
